Source: ChEMBL document CHEMBL5038675, “Selective A3 Adenosine Receptor Antagonist Radioligand for Human and Rodent Species” (ACS Med Chem Lett, 2022)

Tests used:
Adenosine receptor A3 [1] = target: T1, Adenosine receptor A3 (Rattus norvegicus, UniProt P28647); format: cell-based, HEK293
T1 sequence (P28647 whole entry): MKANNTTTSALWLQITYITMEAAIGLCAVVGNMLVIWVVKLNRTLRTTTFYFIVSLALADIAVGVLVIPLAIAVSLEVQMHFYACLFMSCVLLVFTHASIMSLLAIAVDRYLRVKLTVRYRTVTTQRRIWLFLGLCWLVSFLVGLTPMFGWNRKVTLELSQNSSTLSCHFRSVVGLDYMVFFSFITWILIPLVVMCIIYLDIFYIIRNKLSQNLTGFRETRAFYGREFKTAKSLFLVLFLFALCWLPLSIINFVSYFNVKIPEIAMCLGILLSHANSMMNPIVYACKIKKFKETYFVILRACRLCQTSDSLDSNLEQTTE

Adenosine receptor A3 [2] = target: T2, Adenosine receptor A3 (Mus musculus, UniProt Q61618); format: cell-based, HEK293
T2 sequence (Q61618 whole entry): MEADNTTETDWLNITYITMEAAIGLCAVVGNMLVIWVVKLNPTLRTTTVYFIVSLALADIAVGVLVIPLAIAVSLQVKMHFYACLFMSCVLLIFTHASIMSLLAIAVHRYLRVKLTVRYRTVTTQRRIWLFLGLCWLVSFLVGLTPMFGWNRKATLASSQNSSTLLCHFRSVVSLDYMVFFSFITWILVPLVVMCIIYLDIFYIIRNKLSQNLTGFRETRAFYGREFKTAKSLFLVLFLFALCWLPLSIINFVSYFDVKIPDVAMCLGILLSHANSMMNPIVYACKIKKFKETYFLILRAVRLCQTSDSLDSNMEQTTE

Adenosine receptor A3 [3] = target: T3, Adenosine receptor A3 (Homo sapiens, UniProt P0DMS8); format: cell-based, HEK293
T3 sequence (P0DMS8 whole entry): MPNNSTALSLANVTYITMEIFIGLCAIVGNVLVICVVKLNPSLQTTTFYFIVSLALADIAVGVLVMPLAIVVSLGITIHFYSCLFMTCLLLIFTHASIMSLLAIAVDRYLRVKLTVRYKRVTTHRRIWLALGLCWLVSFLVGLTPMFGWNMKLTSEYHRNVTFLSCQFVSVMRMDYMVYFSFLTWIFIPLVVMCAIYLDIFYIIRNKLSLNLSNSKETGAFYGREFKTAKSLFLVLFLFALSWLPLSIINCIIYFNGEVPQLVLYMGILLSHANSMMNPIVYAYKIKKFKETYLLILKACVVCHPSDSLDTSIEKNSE

[4] = target: Adenosine receptor A2b (Rattus norvegicus) (UniProt P29276); test: Displacement of [3H] DPCPX from rat adenosine A2B receptor expressed in HEK293 cells at 10 uM incubated for 60 mins by radioligand binding assay; format: cell-based
[5] = target: Adenosine receptor A2b (Mus musculus) (UniProt Q60614); test: Displacement of [3H] DPCPX from mouse adenosine A2B receptor expressed in HEK293 cells at 10 uM incubated for 60 mins by radioligand binding assay; format: cell-based
[6] = target: Adenosine receptor A2b (Homo sapiens) (UniProt P29275); test: Displacement of [3H] DPCPX from human adenosine A2B receptor expressed in HEK293 cells at 10 uM incubated for 60 mins by radioligand binding assay; format: cell-based
[7] = target: Adenosine receptor A2a (Rattus norvegicus) (UniProt P30543); test: Displacement of [3H] ZM241385 from rat adenosine A2A receptor expressed in HEK293 cells at 10 uM incubated for 60 mins by radioligand binding assay; format: cell-based
[8] = target: Adenosine receptor A2a (Mus musculus) (UniProt Q60613); test: Displacement of [3H] ZM241385 from mouse adenosine A2A receptor expressed in HEK293 cells at 10 uM incubated for 60 mins by radioligand binding assay; format: cell-based
Adenosine receptor A2a [9] = target: T4, Adenosine receptor A2a (Homo sapiens, UniProt P29274); test: Displacement of [3H] ZM241385 from human adenosine A2A receptor expressed in HEK293 cells at 10 uM incubated for 60 mins by radioligand binding assay; format: cell-based
[10] = target: Adenosine receptor A1 (Mus musculus) (UniProt Q60612); test: Displacement of [3H] DPCPX from mouse adenosine A1 receptor expressed in HEK293 cells at 10 uM incubated for 60 mins by radioligand binding assay; format: cell-based
[11] = target: T5, Adenosine receptor A1 (Homo sapiens) (UniProt P30542); test: Displacement of [3H] DPCPX from human adenosine A1 receptor expressed in HEK293 cells at 10 uM incubated for 60 mins by radioligand binding assay; format: cell-based
T5 sequence (whole entry): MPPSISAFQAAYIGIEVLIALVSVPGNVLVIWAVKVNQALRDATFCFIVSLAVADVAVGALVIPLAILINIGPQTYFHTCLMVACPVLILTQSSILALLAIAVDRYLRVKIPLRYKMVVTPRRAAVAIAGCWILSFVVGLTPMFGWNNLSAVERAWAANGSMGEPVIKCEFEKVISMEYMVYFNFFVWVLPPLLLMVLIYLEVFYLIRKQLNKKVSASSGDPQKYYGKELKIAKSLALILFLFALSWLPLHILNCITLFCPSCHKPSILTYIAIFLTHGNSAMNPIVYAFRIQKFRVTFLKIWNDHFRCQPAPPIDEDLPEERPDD

[12] = target: Adenosine receptor A1 (Rattus norvegicus) (UniProt P25099); test: Displacement of [3H] DPCPX from rat adenosine A1 receptor expressed in HEK293 cells at 10 uM incubated for 60 mins by radioligand binding assay; format: cell-based
Adenosine receptor A1 [13] = target: T6, Adenosine receptor A1 (Mus musculus, UniProt Q60612); test: Displacement of [3H] DPCPX from mouse adenosine A1 receptor expressed in HEK293 cells incubated for 60 mins by radioligand binding assay; format: cell-based
T6 sequence (Q60612 whole entry): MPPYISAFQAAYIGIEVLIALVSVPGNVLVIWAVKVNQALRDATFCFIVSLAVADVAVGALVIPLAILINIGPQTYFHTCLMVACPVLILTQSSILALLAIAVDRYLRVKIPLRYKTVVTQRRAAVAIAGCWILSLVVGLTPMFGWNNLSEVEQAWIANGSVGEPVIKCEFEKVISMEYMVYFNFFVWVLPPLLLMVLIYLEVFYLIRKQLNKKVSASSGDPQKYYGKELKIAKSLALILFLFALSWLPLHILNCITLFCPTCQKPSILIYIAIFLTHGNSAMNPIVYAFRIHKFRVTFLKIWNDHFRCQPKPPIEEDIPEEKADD

Adenosine receptor A1 [14] = target: T7, Adenosine receptor A1 (Homo sapiens, UniProt P30542); test: Displacement of [3H] DPCPX from human adenosine A1 receptor expressed in HEK293 cells incubated for 60 mins by radioligand binding assay; format: cell-based
T7 sequence (P30542 whole entry): T5 sequence (whole entry)

Adenosine receptor A2a [15] = target: T4, Adenosine receptor A2a; test: Displacement of [3H] ZM241385 from human adenosine A2A receptor expressed in HEK293 cells incubated for 60 mins by radioligand binding assay; format: cell-based
Adenosine receptor A3 [16] = target: T2, Adenosine receptor A3; test: Binding affinity to mouse adenosine A3 receptor expressed in HEK293 cells measured by radioligand binding assay; format: cell-based
Adenosine receptor A3 [17] = target: T1, Adenosine receptor A3; test: Binding affinity to rat adenosine A3 receptor expressed in HEK293 cells measured by radioligand binding assay; format: cell-based
[18] = target: Sigma intracellular receptor 2 (Homo sapiens, UniProt Q5BJF2); test: Binding affinity to human sigma2 receptor by radioligand binding assay
Translocator protein = Translocator protein (Homo sapiens, UniProt P30536); test: Binding affinity to human TSPO receptor by radioligand binding assay
D(3) dopamine receptor = D(3) dopamine receptor (Homo sapiens, UniProt P35462); test: Binding affinity to human D3 receptor by radioligand binding assay
D(4) dopamine receptor = D(4) dopamine receptor (Homo sapiens, UniProt P21917); test: Binding affinity to human D4 receptor by radioligand binding assay
Chain of D(4) dopamine receptor (P21917 whole entry): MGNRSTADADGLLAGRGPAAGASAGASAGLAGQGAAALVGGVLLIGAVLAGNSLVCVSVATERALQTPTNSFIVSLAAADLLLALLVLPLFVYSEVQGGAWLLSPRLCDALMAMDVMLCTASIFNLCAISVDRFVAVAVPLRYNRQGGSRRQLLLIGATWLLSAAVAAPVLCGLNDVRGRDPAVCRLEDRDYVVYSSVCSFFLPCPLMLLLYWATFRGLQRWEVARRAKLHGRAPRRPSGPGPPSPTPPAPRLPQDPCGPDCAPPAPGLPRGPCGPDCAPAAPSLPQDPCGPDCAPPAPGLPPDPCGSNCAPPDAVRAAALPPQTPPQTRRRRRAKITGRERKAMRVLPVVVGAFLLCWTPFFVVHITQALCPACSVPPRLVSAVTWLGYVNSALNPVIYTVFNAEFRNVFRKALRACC

T4 sequence (P29274 whole entry): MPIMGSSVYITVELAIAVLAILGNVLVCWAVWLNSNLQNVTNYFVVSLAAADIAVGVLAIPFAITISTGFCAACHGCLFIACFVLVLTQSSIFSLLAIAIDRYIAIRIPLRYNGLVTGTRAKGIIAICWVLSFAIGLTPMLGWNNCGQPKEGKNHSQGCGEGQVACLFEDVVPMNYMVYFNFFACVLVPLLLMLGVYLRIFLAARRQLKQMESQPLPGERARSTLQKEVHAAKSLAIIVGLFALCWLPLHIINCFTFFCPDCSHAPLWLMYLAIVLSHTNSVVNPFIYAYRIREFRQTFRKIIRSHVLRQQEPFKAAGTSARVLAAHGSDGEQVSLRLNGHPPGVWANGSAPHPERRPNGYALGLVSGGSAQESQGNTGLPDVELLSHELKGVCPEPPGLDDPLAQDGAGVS
Chain of Adenosine receptor A2a (Mus musculus) (Q60613 whole entry): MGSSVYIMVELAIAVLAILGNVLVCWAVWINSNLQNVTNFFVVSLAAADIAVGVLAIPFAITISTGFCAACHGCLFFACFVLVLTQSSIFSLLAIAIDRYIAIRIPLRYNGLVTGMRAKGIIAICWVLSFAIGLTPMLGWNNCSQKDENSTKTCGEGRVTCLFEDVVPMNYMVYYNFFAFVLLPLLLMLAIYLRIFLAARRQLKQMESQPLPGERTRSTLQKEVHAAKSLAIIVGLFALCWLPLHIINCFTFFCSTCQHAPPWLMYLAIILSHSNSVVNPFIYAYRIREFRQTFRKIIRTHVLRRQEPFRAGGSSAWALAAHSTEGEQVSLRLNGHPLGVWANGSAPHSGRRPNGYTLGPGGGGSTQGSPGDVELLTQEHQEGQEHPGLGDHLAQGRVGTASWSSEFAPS
Chain of Sigma intracellular receptor 2 (Q5BJF2 whole entry): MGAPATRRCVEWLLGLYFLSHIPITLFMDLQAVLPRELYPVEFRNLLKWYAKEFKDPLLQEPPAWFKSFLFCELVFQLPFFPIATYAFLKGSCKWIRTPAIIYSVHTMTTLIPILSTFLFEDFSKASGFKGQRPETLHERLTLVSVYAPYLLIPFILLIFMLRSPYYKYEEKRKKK
Chain of Adenosine receptor A2b (Mus musculus) (Q60614 whole entry): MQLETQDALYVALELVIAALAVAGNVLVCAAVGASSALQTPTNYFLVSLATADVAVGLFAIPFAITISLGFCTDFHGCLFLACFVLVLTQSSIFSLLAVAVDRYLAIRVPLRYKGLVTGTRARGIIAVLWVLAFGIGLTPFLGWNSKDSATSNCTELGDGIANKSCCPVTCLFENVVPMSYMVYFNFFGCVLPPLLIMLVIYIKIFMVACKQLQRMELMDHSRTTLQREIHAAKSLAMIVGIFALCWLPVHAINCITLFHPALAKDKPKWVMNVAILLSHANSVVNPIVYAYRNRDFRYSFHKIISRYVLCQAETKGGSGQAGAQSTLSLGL
Chain of Adenosine receptor A1 (Rattus norvegicus) (P25099 whole entry): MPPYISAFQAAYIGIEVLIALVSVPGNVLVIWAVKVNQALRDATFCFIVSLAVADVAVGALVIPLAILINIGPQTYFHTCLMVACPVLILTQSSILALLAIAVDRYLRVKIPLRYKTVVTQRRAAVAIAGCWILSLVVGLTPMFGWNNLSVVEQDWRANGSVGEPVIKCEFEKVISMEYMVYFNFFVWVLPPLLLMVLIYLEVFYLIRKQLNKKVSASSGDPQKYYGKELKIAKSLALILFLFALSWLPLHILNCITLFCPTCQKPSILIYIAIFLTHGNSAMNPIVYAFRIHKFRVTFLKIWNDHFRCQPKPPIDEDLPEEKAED
Chain of Adenosine receptor A2a (Rattus norvegicus) (P30543 whole entry): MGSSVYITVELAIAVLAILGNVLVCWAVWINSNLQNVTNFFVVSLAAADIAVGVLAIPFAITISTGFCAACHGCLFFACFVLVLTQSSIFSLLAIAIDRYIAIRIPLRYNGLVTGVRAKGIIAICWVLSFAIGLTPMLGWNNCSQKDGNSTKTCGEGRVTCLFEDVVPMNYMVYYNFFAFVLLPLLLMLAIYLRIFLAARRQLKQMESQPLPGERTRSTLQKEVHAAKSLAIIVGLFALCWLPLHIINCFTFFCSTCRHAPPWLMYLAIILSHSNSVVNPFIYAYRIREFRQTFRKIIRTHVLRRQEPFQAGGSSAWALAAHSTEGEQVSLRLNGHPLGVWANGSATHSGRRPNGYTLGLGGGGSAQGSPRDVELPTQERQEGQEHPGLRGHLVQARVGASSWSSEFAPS
Chain of Adenosine receptor A2b (Rattus norvegicus) (P29276 whole entry): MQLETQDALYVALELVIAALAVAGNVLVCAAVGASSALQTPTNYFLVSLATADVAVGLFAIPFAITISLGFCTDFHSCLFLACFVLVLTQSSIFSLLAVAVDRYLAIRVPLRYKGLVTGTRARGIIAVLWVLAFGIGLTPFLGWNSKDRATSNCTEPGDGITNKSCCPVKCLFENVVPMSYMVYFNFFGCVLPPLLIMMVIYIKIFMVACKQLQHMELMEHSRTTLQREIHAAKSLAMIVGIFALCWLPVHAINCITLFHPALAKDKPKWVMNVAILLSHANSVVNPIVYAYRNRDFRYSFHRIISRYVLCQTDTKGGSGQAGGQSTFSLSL
Chain of Translocator protein (P30536 whole entry): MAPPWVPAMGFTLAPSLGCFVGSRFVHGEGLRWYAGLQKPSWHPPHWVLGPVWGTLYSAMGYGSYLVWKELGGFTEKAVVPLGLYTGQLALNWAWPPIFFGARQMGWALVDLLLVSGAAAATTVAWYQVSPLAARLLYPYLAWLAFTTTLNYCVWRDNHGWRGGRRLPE
Chain of Adenosine receptor A2b (Homo sapiens) (P29275 whole entry): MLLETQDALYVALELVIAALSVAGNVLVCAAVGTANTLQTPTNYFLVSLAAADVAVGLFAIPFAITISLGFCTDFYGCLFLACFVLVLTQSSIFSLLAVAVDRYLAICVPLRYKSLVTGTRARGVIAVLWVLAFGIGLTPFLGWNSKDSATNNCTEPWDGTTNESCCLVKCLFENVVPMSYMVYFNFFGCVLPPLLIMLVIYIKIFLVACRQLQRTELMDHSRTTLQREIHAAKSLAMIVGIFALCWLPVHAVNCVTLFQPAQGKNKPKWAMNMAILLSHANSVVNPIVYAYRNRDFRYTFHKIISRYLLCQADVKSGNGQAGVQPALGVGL
Chain of D(3) dopamine receptor (P35462 whole entry): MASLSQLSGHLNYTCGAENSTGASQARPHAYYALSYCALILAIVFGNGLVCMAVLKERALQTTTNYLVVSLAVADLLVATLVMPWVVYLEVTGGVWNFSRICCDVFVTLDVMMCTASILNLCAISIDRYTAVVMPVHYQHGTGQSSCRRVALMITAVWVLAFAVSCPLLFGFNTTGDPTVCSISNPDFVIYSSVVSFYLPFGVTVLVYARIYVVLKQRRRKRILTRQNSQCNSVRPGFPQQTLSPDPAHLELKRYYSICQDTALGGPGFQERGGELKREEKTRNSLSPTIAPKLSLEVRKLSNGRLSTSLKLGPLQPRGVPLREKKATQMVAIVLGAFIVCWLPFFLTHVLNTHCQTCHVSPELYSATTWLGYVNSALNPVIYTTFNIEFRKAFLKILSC

CCCOC(=O)c1c(-c2ccccc2)nc(CC)c(C(=O)SCC)c1CCC
Ki (Adenosine receptor A3 [1]): 216 nM | Ki (Adenosine receptor A3 [2]): 349 nM | Ki (Adenosine receptor A3 [3]): 43.9 nM | inhibition [4]: 38.8% | inhibition [5]: 20.2% | inhibition [6]: 34.5% | inhibition [7]: 7.4% | inhibition [8]: 25.1% | inhibition (Adenosine receptor A2a [9]): 16.4% | inhibition [10]: 27.4% | inhibition [11]: 35.4% | inhibition [12]: 25.5%

Cc1cc(Br)cc(-c2nc(NC(=O)c3cccnc3)sc2-c2ccncc2)c1
Ki (Adenosine receptor A3 [2]): 22.3 nM | Ki (Adenosine receptor A3 [3]): 6.34 nM | inhibition [8]: 29% | inhibition (Adenosine receptor A2a [9]): -7.3% | Ki (Adenosine receptor A1 [13]): 252 nM | Ki (Adenosine receptor A1 [14]): 1450 nM

Cc1cc(F)cc(-c2nc(NC(=O)c3cccnc3)sc2-c2ccncc2)c1
Ki (Adenosine receptor A3 [3]): 69.2 nM | Ki (Adenosine receptor A2a [15]): 3550 nM | Ki (Adenosine receptor A1 [14]): 78.7 nM

[3H]c1cncc(C(=O)Nc2nc(-c3cc(C)cc(C)c3)c(-c3ccncc3)s2)c1
Kd (Adenosine receptor A3 [16]): 3.74 nM | Kd (Adenosine receptor A3 [17]): 2.8 nM

COC(=O)/C=C/c1cc(C)cc(-c2nc(NC(=O)c3cccnc3)sc2-c2ccncc2)c1
Ki (Adenosine receptor A3 [2]): 120 nM | Ki (Adenosine receptor A3 [3]): 18.9 nM | inhibition (Adenosine receptor A2a [9]): 15% | Ki (Adenosine receptor A1 [14]): 1570 nM

Cc1cc(I)cc(-c2nc(NC(=O)c3cccnc3)sc2-c2ccncc2)c1
Ki (Adenosine receptor A3 [2]): 12.4 nM | Ki (Adenosine receptor A3 [3]): 6.12 nM | inhibition [8]: 7.4% | Ki (Adenosine receptor A1 [13]): 2640 nM | Ki (Adenosine receptor A1 [14]): 8770 nM | Ki [18]: 3690 nM | Ki (Translocator protein): 1330 nM | Ki (D(3) dopamine receptor): 340 nM | Ki (D(4) dopamine receptor): 1240 nM
